In patent US20040063790A1, “Methods for inhibition of angiogenesis” (The Scripps Research Institute, priority 1996, published 2004):
Where a SMILES comes first, the peptide text is derived from it. [ ]: non-standard residue; d: D form.

How the values were obtained:
[1] = test system: tumor-induced angiogenesis; test: CAM assay, tumor-induced angiogenesis, intravenous application; assay type: in vivo, chick; settings: intravenous injection
Method: Angiogenesis was induced in the CAM assay system by direct apposition of a tumor fragment on the CAM. Preparation of the chick embryo CAM was identical to the procedure described above. Instead of a filter paper disk, a 50 milligram (mg) to 55 mg in weight fragment of one of human melanoma tumor M21-L, human lung carcinoma tumor UCLAP-3, human pancreatic carcinoma cell line FG (Cheresh et al., Cell 58:945-953, 1989), or human laryngeal carcinoma cell line HEp3, all of which are αvβ3 negative tumors, was placed on the CAM in an area originally devoid of blood vessels.
The M21-L human melanoma cell line, UCLAP-3 human lung carcinoma cell line, FG pancreatic carcinoma cell line, or HEp3 human laryngeal carcinoma cell line, all αvβ3 negative, were used to grow the solid human tumors on the CAMs of chick embryos. A single cell suspension of 8×10^6 M21-L, UCLAP-3, and FB or 5×10^5 HEp3 cells was first applied to the CAMs in a total volume of 30 μl of sterile HBSS. The windows were sealed with tape and the embryos were incubated for 7 days to allow growth of human tumor lesions. At the end of 7 days, now a 17-day embryo, the tumors were resected from the CAMs and trimmed free of surrounding CAM tissue. […]
The effects of peptide exposure to tumor-induced vasculature in the CAM assay system was also assessed. […]

[2] = test system: bFGF-induced angiogenesis; test: CAM assay, growth factor-induced angiogenesis, topical application; assay type: in vivo, chick; settings: 80 μg peptide topically at 0, 24 and 48 hrs; viewed at 72 hours
Method: J. Pathol., 79:597 (1975). CAMs were prepared from chick embryos for subsequent induction of angiogenesis and inhibition thereof as described in Examples 4 and 5, respectively. Ten day old chick embryos were obtained from McIntyre Poultry (Lakeside, Calif.) and incubated at 37° C. with 60% humidity. A small hole was made through the shell at the end of the egg directly over the air sac with the use of a small crafts drill (Dremel, Division of Emerson Electric Co. Racine Wis.). A second hole was drilled on the broad side of the egg in a region devoid of embryonic blood vessels determined previously by candling the egg. […]
Angiogenesis was induced by placing a 5 millimeter (mm)×5 mm Whatman filter disk (Whatman Filter paper No.1) saturated with Hanks Balanced Salt Solution (HBSS, GIBCO, Grand Island, N.Y.) or HBSS containing 150 nanograms/milliliter (ng/ml) recombinant basic fibroblast growth factor (bFGF) (Genzyme, Cambridge, Mass.) on the CAM of a 10-day chick embryo in a region devoid of blood vessels and the windows were latter sealed with tape. […] For assays where inhibition of angiogenesis ws evaluated with intravenous injections of antagonists, angiogenesis was first induced with 1-2 μg/ml bFGF in fibroblast growth medium. Angiogenesis was monitored by photomicroscopy after 72 hours. […]
Quantification was performed in a double blind manner by at least two independent observers. […]

αIIbβ3 = target: T1, αIIbβ3 (Homo sapiens, UniProt P05106+P08514); test: Ligand-receptor binding assay, immobilized αIIbβ3; settings: radiolabeled fibrinogen; average of duplicate data points ± standard deviation; read-out: αIIbβ3 (IC50 μM)
T1 construct: selected purified integrins were separately immobilized in Titertek microtiter wells
From the text: (§1) Herein described is a method of identifying antagonists in a ligand-receptor binding assay in which the receptor is immobilized to a solid support and the ligand and antagonist are soluble. Also described is a ligand-receptor binding assay in which the ligand is immobilized to a solid support and the receptor and antagonists are soluble.
(§2) Briefly, selected purified integrins were separately immobilized in Titertek microtiter wells at a coating concentration of 50 nanograms (ng) per well. The purification of the receptors used in the ligand-receptor binding assays are well known in the art and are readily obtainable with methods familiar to one of ordinary skill in the art. After incubation for 18 hours at 4° C., nonspecific binding sites on the plate were blocked with 10 milligrams/milliliter (mg/ml) of bovine serum albumin (BSA) in Tris-buffered saline. […] Radiolabeled ligands were used at concentrations of 1 nM and binding was challenged separately with unlabeled synthetic peptides.
(§3) Following a three hour incubation, free ligand was removed by washing and bound ligand was detected by gamma counting. […] The IC50 data in micromoles (IC50 μM) are expressed as the average of duplicate data points±the standard deviation as shown in Table 2.

αvβ3 = target: T2, αvβ3 (Homo sapiens, UniProt P05106+P06756); test: Ligand-receptor binding assay, immobilized αvβ3
T2 construct: selected purified integrins were separately immobilized in Titertek microtiter wells
From the text: as §1, §2, §3

[3] = test system: retinal neovascularization; settings: Hammes et al., Nature Med. 1996; cited from earlier work
αvβ3 integrin = αvβ3 integrin (Homo sapiens, UniProt P05106+P06756); settings: Pfaff et al. 1994; not to the αIIbβ3 or α5β1 integrins; cited from earlier work
M21-L melanoma tumor = test: In vivo chimeric mouse:human assay; parameters: species or system SCID mouse; settings: intravenous, FIG. 18
Method: An in vivo chimeric mouse:human model was generated by replacing a portion of skin from a SCID mouse with human neonatal foreskin (FIG. 4). After the skin graft was established, the human foreskin was inoculated with carcinoma cells. After a measurable tumor was established, either an αvβ3 antagonist or PBS was injected into the mouse tail vein. Following a 2-3 week period, the tumor was excised and analyzed by weight and histology.
The in vivo chimeric mouse:human model is prepared essentially as described in Yan, et al., J. Clin. Invest., 91:986-996 (1993). Briefly, a 2 cm^2 square area of skin was surgically removed from a SCID mouse (6-8 weeks of age) and replaced with a human foreskin. The mouse was anesthetized and the hair removed from a 5 cm^2 area on each side of the lateral abdominal region by shaving. Two circular graft beds of 2 cm^2 were prepared by removing the full thickness of skin down to the fascia. Full thickness human skin grafts of the same size derived from human neonatal foreskin were placed onto the wound beds and sutured into place. […]
In a procedure similar to that described above for monoclonal antibodies, peptide antagonists of αvβ3 were injected intravenously into the tail vein of SCID mice having measurable M21-L tumors. […] The mean volume and weight of resected tumors following treatment were determined with the results respectively shown in FIGS. 19A and 19B.

T2 sequence (P06756 31-889 limits assumed): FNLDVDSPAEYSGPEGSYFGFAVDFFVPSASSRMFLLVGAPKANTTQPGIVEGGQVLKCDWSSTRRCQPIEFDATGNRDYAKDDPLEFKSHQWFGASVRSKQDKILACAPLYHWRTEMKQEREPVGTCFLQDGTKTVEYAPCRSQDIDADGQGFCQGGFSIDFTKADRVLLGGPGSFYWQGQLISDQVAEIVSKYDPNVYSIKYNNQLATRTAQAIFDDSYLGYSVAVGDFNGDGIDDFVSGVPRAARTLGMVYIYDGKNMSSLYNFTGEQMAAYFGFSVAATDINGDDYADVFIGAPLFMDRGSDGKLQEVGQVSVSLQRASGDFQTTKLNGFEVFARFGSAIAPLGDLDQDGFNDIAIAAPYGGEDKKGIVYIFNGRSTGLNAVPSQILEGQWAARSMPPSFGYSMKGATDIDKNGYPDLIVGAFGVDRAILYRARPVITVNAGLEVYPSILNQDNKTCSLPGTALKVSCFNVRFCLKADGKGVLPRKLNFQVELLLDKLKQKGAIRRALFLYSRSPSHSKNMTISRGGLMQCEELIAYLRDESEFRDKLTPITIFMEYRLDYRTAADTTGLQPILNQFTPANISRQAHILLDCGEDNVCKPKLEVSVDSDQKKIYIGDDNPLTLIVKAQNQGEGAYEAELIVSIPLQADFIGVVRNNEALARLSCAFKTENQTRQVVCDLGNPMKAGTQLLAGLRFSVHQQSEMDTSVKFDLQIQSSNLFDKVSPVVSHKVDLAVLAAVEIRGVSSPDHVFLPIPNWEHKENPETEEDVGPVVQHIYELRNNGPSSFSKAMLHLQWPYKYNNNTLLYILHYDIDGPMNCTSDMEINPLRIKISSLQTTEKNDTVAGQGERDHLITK
T2 sequence (P06756 891-1048 partner limits assumed): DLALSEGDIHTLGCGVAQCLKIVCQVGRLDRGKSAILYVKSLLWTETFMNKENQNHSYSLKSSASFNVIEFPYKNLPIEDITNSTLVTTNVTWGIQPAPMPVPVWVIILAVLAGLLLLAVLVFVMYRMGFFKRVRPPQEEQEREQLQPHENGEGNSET
T2 sequence (P05106 27-788): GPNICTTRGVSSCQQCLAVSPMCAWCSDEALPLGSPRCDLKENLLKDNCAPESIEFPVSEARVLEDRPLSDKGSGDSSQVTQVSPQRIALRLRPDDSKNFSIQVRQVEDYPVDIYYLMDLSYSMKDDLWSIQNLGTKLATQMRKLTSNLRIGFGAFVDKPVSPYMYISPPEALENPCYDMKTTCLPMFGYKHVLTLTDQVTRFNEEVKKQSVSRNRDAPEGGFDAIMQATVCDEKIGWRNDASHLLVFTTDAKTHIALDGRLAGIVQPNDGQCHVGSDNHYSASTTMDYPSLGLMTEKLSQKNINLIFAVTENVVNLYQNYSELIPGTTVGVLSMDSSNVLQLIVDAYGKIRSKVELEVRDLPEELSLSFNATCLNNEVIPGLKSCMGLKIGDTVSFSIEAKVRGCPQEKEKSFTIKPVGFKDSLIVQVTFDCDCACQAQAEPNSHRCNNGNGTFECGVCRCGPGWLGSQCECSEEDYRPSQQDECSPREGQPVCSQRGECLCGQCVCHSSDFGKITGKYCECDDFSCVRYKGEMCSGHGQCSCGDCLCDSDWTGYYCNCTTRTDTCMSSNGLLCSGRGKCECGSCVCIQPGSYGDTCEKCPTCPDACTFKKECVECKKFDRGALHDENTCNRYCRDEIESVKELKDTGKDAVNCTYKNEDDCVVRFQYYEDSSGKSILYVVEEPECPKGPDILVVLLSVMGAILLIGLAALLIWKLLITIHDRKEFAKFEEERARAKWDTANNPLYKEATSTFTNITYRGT
T1 sequence (P08514 32-887 limits assumed): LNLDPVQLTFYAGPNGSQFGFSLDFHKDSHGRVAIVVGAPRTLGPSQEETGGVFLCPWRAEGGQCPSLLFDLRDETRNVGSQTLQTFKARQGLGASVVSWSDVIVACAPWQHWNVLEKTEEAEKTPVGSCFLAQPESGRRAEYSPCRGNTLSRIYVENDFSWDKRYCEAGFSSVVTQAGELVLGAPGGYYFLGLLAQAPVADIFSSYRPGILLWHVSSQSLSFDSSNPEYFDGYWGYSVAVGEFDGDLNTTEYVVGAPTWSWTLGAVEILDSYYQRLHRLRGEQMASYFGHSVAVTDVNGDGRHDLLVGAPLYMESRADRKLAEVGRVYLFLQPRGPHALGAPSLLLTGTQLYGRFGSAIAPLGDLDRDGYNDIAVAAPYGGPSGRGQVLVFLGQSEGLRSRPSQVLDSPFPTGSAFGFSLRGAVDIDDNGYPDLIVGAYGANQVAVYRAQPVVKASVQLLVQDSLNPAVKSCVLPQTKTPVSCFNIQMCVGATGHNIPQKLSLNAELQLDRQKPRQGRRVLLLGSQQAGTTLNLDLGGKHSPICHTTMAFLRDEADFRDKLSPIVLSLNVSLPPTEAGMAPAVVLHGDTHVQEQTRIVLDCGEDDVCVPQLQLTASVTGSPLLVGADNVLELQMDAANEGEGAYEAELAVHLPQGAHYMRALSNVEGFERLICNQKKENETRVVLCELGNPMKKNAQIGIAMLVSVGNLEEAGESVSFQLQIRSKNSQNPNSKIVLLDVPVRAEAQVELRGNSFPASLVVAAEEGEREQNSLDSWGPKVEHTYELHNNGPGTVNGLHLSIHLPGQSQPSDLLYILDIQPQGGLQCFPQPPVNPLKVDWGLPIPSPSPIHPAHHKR
T1 sequence (P08514 891-1039 partner limits assumed): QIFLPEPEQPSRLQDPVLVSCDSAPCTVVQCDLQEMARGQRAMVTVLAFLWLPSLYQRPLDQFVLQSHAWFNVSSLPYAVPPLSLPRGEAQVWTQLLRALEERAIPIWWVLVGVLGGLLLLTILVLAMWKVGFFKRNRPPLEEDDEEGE
T1 sequence (P05106 27-788): as the sequence (P05106 27-788) above
Chain of αvβ3 integrin (P06756 31-889 limits assumed): as the sequence (P06756 31-889 limits assumed) above
Chain of αvβ3 integrin (P06756 891-1048 partner limits assumed): as the sequence (P06756 891-1048 partner limits assumed) above
Chain of αvβ3 integrin (P05106 27-788): as the sequence (P05106 27-788) above

CC(C)[C@@H]1NC(=O)[C@@H](Cc2ccccc2)NC(=O)[C@H](CC(=O)O)NC(=O)CNC(=O)[C@H](CCCNC(=N)N)NC1=O [Peptide 62184, cyclo (RGDfV)]
inhibition of tumor-induced blood vessel formation [1]: demonstrated to inhibit angiogenesis | effect on bFGF-induced blood vessel formation [2]: formation of blood vessels was inhibited

CC(C)[C@@H]1NC(=O)[C@H](Cc2ccccc2)NC(=O)[C@H](CC(=O)O)NC(=O)[C@@H](C)NC(=O)[C@H](CCCNC(=N)N)NC1=O [Peptide 62186, cyclo (RaDFV)] (cyclo(R[dA]DFV))
effect on bFGF-induced blood vessel formation [2]: remained undisturbed | IC50 (αIIbβ3): 100 ± 0.001 µM | preference of inhibition of fibrinogen binding, αvβ3 versus αIIbβ3 (αvβ3; comparison of half-maximal concentrations of Table 2): either not as effective in blocking fibrinogen binding to αvβ3 or exhibited preferential inhibition of fibrinogen binding to αIIbβ3 | IC50 (αvβ3; radiolabeled fibrinogen, average of duplicate data points ± standard deviation, read-out: αvβ3 (IC50 μM)): 57.5 ± 7.84 µM

cyclic RGDfV
inhibition of retinal neovascularization [3]: inhibited retinal neovascularization | inhibition of fibrinogen binding to integrins (αvβ3 integrin): specifically inhibited binding of fibrinogen to the αvβ3 integrin

B1: LM609: monoclonal antibody specific for αvβ3 (anti-αvβ3) (antibody, V domains shown)
VH: EVQLEESGGGLVKPGGSLKLSCAASGFAFSSYDMSWVRQIPEKRLEWVAKVSSGGGSTYYLDTVQGRFTISRDNAKNTLYLQMSSLNSEDTAMYYCARHNYGSFAYWGQGTLVTVSA
VL: ELVMTQTPATLSVTPGDSVSLSCRASQSISNHLHWYQQKSHESPRLLIKYASQSISGIPSRFSGSGSGTDFTLSINSVETEDFGMYFCQQSNSWPHTFGGGTKLEIKRA
tumor volume (M21-L melanoma tumor): approximately 60 mm^3
